Reference: ChEMBL document CHEMBL5532691, “Anti-cancer activity and mechanism of flurbiprofen organoselenium compound RY-1-92 in non-small cell lung cancer” (RSC Med Chem, 2024)
Calls of active or inactive are those of the source. No cut-off for these calls is given here.

Assays:
NCI-H460 [1] = assay: Induction of apoptosis in human NCI-H460 cells assessed as late apoptotic cells at 30 uM measured after 48 hrs by annexin V-FITC/PI staining based flow cytometry analysis (reference value: 5.41%); assay type: functional
NCI-H460 [2] = assay: Induction of apoptosis in human NCI-H460 cells assessed as necrotic cells at 30 uM measured after 48 hrs by annexin V-FITC/PI staining based flow cytometry analysis (reference value: 2.47%); assay type: functional
A549 [3] = assay: Downregulation of CDK1 protein expression in human A549 cells at 10 to 30 uM by Western blot analysis; assay type: functional, cell-based; settings: dose 10-30 µM
A549 [4] = assay: Downregulation of cyclin B1 protein expression in human A549 cells at 10 to 30 uM by Western blot analysis; assay type: functional, cell-based; settings: dose 10-30 µM
NCI-H460 [5] = assay: Downregulation of CDK1 protein expression in human NCI-H460 cells at 30 uM by Western blot analysis; assay type: functional, cell-based
NCI-H460 [6] = assay: Downregulation of cyclin B1 protein expression in human NCI-H460 cells at 30 uM by Western blot analysis; assay type: functional, cell-based
A549 [7] = assay: Upregulation of Bax protein expression in human A549 cells at 10 to 30 uM by Western blot analysis; assay type: functional, cell-based; settings: dose 10-30 µM
NCI-H460 [8] = assay: Upregulation of Bax protein expression in human NCI-H460 cells at 10 uM by Western blot analysis; assay type: functional, cell-based
A549 [9] = assay: Upregulation of Bax/Bcl2 ratio in human A549 cells at 10 to 30 uM by Western blot analysis; assay type: functional, cell-based; settings: dose 10-30 µM
NCI-H460 [10] = assay: Upregulation of Bax/Bcl2 ratio in human NCI-H460 cells at 10 to 30 uM by Western blot analysis; assay type: functional, cell-based; settings: dose 10-30 µM
A549 [11] = assay: Inhibition of colony formation in human A549 cells at 10 uM measured after 48 hrs by giemsa staining based analysis relative to control; assay type: functional
A549 [12] = assay: Inhibition of colony formation in human A549 cells at 30 uM measured after 48 hrs by giemsa staining based analysis relative to control; assay type: functional
NCI-H460 [13] = assay: Inhibition of colony formation in human NCI-H460 cells at 30 uM measured after 48 hrs by giemsa staining based analysis relative to control; assay type: functional
A549 [14] = assay: Inhibition of cell migration in human A549 cells at 10 to 30 uM measured after 24 hrs by wound healing assay relative to control; assay type: functional; settings: dose 10-30 µM
NCI-H460 [15] = assay: Inhibition of cell migration in human NCI-H460 cells at 10 to 30 uM measured after 24 hrs by wound healing assay relative to control; assay type: functional; settings: dose 10-30 µM
A549 [16] = assay: Downregulation of TRPV1 expression level in human A549 cells at 10 to 30 uM by Western blot analysis; assay type: functional, cell-based; settings: dose 10-30 µM
NCI-H460 [17] = assay: Downregulation of TRPV1 expression level in human NCI-H460 cells at 10 to 30 uM by Western blot analysis; assay type: functional, cell-based; settings: dose 10-30 µM
A549 [18] = assay: Downregulation of JNK phosphorylation expression in human A549 cells at 10 to 30 uM by Western blot analysis; assay type: functional, cell-based; settings: dose 10-30 µM
NCI-H460 [19] = assay: Downregulation of JNK phosphorylation expression in human NCI-H460 cells at 10 to 30 uM by Western blot analysis; assay type: functional, cell-based; settings: dose 10-30 µM
A549 [20] = assay: Downregulation of ERK phosphorylation expression in human A549 cells at 10 to 30 uM by Western blot analysis; assay type: functional, cell-based; settings: dose 10-30 µM
NCI-H460 [21] = assay: Downregulation of ERK phosphorylation expression in human NCI-H460 cells at 10 to 30 uM by Western blot analysis; assay type: functional, cell-based; settings: dose 10-30 µM
A549 [22] = assay: Downregulation of P38 phosphorylation expression in human A549 cells at 10 to 30 uM by Western blot analysis; assay type: functional, cell-based; settings: dose 10-30 µM
NCI-H460 [23] = assay: Downregulation of P38 phosphorylation expression in human NCI-H460 cells at 10 to 30 uM by Western blot analysis; assay type: functional, cell-based; settings: dose 10-30 µM
A549 [24] = assay: Downregulation of AKT phosphorylation expression in human A549 cells at 10 to 30 uM by Western blot analysis; assay type: functional, cell-based; settings: dose 10-30 µM
NCI-H460 [25] = assay: Downregulation of AKT phosphorylation expression in human NCI-H460 cells at 10 to 30 uM by Western blot analysis; assay type: functional, cell-based; settings: dose 10-30 µM
Lewis lung carcinoma [26] = assay: Antitumor activity against mouse Lewis lung carcinoma cell line xenografted in C57BL/6 mouse model assessed as reduction in tumor volume at 10 to 20 mg/kg, ip measured every three days for 15 days by vernier caliper analysis; assay type: functional, organism-based; settings: dose 10-20 mg/kg, time 15.0 day
Lewis lung carcinoma [27] = assay: Antitumor activity against mouse Lewis lung carcinoma cell line xenografted in C57BL/6 mouse model assessed as reduction in tumor weight at 10 to 20 mg/kg, ip measured every three days for 15 days […]; assay type: functional, organism-based; settings: dose 10-20 mg/kg, time 15.0 day
Lewis lung carcinoma [28] = assay: Antitumor activity against mouse Lewis lung carcinoma cell line xenografted in C57BL/6 mouse model assessed as downregulation of CDK1 expression at 10 to 20 mg/kg by Western blot analysis; assay type: functional, organism-based; settings: dose 10-20 mg/kg
Lewis lung carcinoma [29] = assay: Antitumor activity against mouse Lewis lung carcinoma cell line xenografted in C57BL/6 mouse model assessed as downregulation of cyclin B1 expression at 10 to 20 mg/kg by Western blot analysis; assay type: functional, organism-based; settings: dose 10-20 mg/kg
Lewis lung carcinoma [30] = assay: Antitumor activity against mouse Lewis lung carcinoma cell line xenografted in C57BL/6 mouse model assessed as increase in bax protein expression at 10 to 20 mg/kg by Western blot analysis; assay type: functional, organism-based; settings: dose 10-20 mg/kg
Lewis lung carcinoma [31] = assay: Antitumor activity against mouse Lewis lung carcinoma cell line xenografted in C57BL/6 mouse model assessed as decrease in bcl-2 protein expression at 10 to 20 mg/kg by Western blot analysis; assay type: functional, organism-based; settings: dose 10-20 mg/kg
Lewis lung carcinoma [32] = assay: Antitumor activity against mouse Lewis lung carcinoma cell line xenografted in C57BL/6 mouse model assessed as increase in Bax/Bcl2 ratio at 10 to 20 mg/kg by Western blot analysis; assay type: functional, organism-based; settings: dose 10-20 mg/kg

CC(C(=O)NCCC[Se]C(F)(F)F)c1ccc(-c2ccccc2)c(F)c1 (configuration not stated)
Activity (NCI-H460 [1]): 17.28% | Activity (NCI-H460 [2]): 6.76% | Activity (A549 [3]): Active | Activity (A549 [4]): Active | Activity (NCI-H460 [5]): Active | Activity (NCI-H460 [6]): Active | Activity (A549 [7]): Active | Activity (NCI-H460 [8]): Active | Activity (A549 [9]): Active | Activity (NCI-H460 [10]): Active | inhibition at 10 µM (A549 [11]): 45% | inhibition at 30 µM (A549 [12]): 89% | inhibition at 30 µM (NCI-H460 [13]): 88% | inhibition (INH) (A549 [14]): 62.9% | inhibition (INH) (NCI-H460 [15]): 47.5% | Activity (A549 [16]): Active | Activity (NCI-H460 [17]): Active | Activity (A549 [18]): Active | Activity (NCI-H460 [19]): Active | Activity (A549 [20]): Active | Activity (NCI-H460 [21]): Active | Activity (A549 [22]): Active | Activity (NCI-H460 [23]): Active | Activity (A549 [24]): Active | Activity (NCI-H460 [25]): Active | Activity (Lewis lung carcinoma [26]): Active | Activity (Lewis lung carcinoma [27]): Active | Activity (Lewis lung carcinoma [28]): Active | Activity (Lewis lung carcinoma [29]): Active | Activity (Lewis lung carcinoma [30]): Active | Activity (Lewis lung carcinoma [31]): Active | Activity (Lewis lung carcinoma [32]): Active
